Read-outs that look alike come from different tables or passages of the source. Positions of bridges follow the written chain, without caps; N, C: chain ends. Non-standard residues stand in square brackets, D forms with d. Residues, ends and D or L forms follow the SMILES beside them. *: point of attachment. Malonyl(2,2-Me2,histaminyl) = CC(C)(C(=O)NCCc1cnc[nH]1)C(=O)*; Ala(1H-tetrazol-5-yl) = N[C@@H](Cc1nnn[nH]1)C(=O)O; Nle = CCCC[C@H](N)C(=O)O; Aib = CC(C)(N)C(=O)O

As a reminder, the Emax is the greatest response seen or fitted, relative to the assay's reference.

What all share (format): cell-based
One experiment addresses T1, human GLP2 receptor (Homo sapiens, UniProt O95838).
T1 construct: expressed in transfected cells; host or cells: HEK cells, BacMam virus transduction
T1 sequence (O95838 1-553): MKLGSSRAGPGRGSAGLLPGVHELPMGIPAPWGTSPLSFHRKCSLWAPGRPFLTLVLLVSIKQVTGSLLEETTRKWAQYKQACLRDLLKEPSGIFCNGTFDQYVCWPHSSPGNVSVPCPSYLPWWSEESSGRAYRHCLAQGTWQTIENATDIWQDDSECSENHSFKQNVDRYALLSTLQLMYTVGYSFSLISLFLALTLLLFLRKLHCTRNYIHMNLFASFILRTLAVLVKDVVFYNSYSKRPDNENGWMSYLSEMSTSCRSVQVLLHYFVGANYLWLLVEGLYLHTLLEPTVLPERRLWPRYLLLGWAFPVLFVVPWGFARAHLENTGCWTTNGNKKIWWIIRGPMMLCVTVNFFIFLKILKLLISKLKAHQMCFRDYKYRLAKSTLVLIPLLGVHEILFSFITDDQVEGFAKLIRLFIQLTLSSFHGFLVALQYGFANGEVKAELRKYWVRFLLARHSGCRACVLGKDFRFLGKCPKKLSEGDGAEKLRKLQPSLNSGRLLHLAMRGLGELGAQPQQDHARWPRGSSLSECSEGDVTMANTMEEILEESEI
Nature of the experiment: cAMP accumulation assay, functional agonism of human GLP2 receptor. The note with it: HEK cells infected with human GLP2 receptor BacMam virus, HTRF cAMP; for Emax: HEK293, read-out: Human GLP-2R agonist cAMP Emax; for EC50: read-out: Human GLP-2R agonist cAMP pEC50 (converted). The gist of the method:
(§1)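 HEK cells transduced for 24 hours with human GLP2 or GLP1 receptor BacMam virus were frozen, then stimulated with agonist in HBSS containing 0.5 mM IBMX. After 45 min at 37° C, cAMP was measured by HTRF after adding detection reagents in lysis buffer.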
(Cyclic AMP is a second messenger, typically raised through Gs and lowered through Gi signalling.)

The target of the next experiment is T2, human GLP1 receptor (Homo sapiens, UniProt P43220).
T2 construct: expressed in transfected cells; host or cells: HEK cells, BacMam virus transduction
As to the kind of experiment: cAMP accumulation assay, functional agonism of human GLP1 receptor. The note with it: HEK cells infected with human GLP1 receptor BacMam virus, HTRF cAMP; for Emax: HEK293, read-out: Human GLP-1R agonist cAMP Emax; for EC50: read-out: Human GLP-1R agonist cAMP pEC50 (converted). The gist of the method: as §1

The target in the next experiment is T3, mouse GLP2 receptor (Mus musculus, UniProt Q5IXF8).
T3 construct: expressed in transfected cells; host or cells: HEK cells, transient transfection with GeneJuice
T3 sequence (Q5IXF8 1-512): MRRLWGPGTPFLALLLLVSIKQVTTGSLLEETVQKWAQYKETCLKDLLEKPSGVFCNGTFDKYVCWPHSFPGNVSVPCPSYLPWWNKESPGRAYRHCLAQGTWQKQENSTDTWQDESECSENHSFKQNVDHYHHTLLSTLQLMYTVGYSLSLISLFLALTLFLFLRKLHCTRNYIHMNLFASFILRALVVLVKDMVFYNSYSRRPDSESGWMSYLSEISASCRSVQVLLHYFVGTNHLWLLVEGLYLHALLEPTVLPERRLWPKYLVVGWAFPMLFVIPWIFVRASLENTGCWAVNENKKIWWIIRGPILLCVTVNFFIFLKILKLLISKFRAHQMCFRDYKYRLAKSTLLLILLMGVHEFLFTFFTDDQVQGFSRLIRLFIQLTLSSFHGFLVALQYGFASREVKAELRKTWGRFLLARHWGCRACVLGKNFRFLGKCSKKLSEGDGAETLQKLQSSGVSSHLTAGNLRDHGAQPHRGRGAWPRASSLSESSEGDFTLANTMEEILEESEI
Nature of the experiment: cAMP accumulation assay, functional agonism of mouse GLP2 receptor. How it is done: CAMP production upon agonist stimulation of mouse GLP2 or GLP1 receptors was assessed utilizing HiRange cAMP kit (Cisbio). In brief, HEK cells were transiently transfected for 24 hours with cDNA using GeneJuice Transfection reagent (EMD Millipore) and frozen at −80° C. for later use in the assay. On the day, various concentrations of compounds were dispensed using ECHO-555 (LabCyte) to a total volume of 100 nl into a low volume 384-well Proxi plate (Perkin Elmer) followed by addition of 10 μl of cell suspension delivering 8000 cells per well. Cells were prepared in the assay buffer (HBSS (Lonza) supplemented with 0.5 mM IBMX (Tocris)). After 45 min incubation at 37° C., the reaction was stopped by addition of the HTRF detection reagents in the lysis buffer provided in the kit. Following 1-hour incubation at RT, plates were read on Pherastar FS (BMG Labtech, Inc.) using standard HTRF settings. Dotmatics Studies software was used for calculation of pEC50 values by fitting data to a four-parameter concentration response curve.

Setting [1] is: HEK293, HEK cells transiently transfected with mouse GLP2 receptor, HTRF cAMP, read-out: Mouse GLP-2R agonist cAMP Emax.
Setting [2] is: HEK cells transiently transfected with mouse GLP2 receptor, HTRF cAMP, read-out: Mouse GLP-2R agonist cAMP pEC50 (converted).

T2 sequence (P43220 24-463): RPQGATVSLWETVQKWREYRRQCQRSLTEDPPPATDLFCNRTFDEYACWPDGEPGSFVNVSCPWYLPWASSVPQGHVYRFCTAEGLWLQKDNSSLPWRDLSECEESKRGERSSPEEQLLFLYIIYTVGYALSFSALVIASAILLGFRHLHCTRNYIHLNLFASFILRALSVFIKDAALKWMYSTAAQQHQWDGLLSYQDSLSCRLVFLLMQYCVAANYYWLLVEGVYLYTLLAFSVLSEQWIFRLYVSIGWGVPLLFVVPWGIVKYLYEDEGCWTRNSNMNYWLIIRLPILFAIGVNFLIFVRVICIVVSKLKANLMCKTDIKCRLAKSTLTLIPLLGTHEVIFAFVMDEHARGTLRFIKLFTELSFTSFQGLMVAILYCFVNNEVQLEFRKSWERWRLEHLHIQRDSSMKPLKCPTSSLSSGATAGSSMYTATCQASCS

Regarding `CCCC[C@@H]1NC(=O)[C@H](CCC(=O)O)NC(=O)[C@H](CC(=O)O)NC(=O)[C@@H](NC(=O)[C@H](Cc2ccccc2)NC(=O)[C@H](CO)NC(=O)CNC(=O)[C@H](CC(=O)O)NC(=O)C(C)(C)NC(=O)[C@@H](N)Cc2c[nH]cn2)CCC(=O)NCCCC[C@@H](C(=O)N[C@H]2CCC(=O)NCCCC[C@@H](C(=O)N[C@H]3CCC(=O)NCCCC[C@@H](C(=O)N[C@@H](CC(=O)O)C(=O)N[C@@H](Cc4ccccc4)C(=O)N[C@H](C(=O)N[C@H]4CCC(=O)NCCCC[C@@H](C(=O)N[C@H]5CCCCNC(=O)CC[C@@H](C(N)=O)NC(=O)[C@H]([C@@H](C)O)NC(=O)[C@H]([C@@H](C)CC)NC(=O)[C@H](CCCCN)NC5=O)NC(=O)[C@H]([C@@H](C)CC)NC(=O)[C@H](CC(C)C)NC(=O)[C@H](Cc5c[nH]c6ccccc56)NC4=O)[C@@H](C)CC)NC(=O)[C@H](C)NC(=O)[C@H](C)NC3=O)NC(=O)[C@H](CC(=O)O)NC(=O)[C@H](CC(C)C)NC(=O)[C@H]([C@@H](C)CC)NC2=O)NC1=O` [Example 76] (H-H[Aib]DGSFEDE[Nle]KEILDKEAAKDFIEWLIKKKITE-NH2; lactam 7-11, 12-16, 17-20, 24-28, 29-33 (inferred)), the maximal response (Emax) at human GLP2 receptor came out at 102%; at human GLP1 receptor, 94.9%; at mouse GLP2 receptor (HEK293, read-out: Mouse GLP-2R agonist cAMP Emax), 102%. The results for the EC50 at human GLP2 receptor, on human GLP1 receptor and on mouse GLP2 receptor were 0.0126 nM, 1 nM and 1.26 nM, respectively.

With `CCCC[C@@H]1NC(=O)[C@H](CCC(=O)O)NC(=O)[C@H](CC(=O)O)NC(=O)[C@@H](NC(=O)[C@H](Cc2ccccc2)NC(=O)[C@H](CO)NC(=O)CNC(=O)[C@H](CC(=O)O)NC(=O)C(C)(C)NC(=O)[C@@H](N)Cc2c[nH]cn2)CCC(=O)NCCCC[C@@H](C(=O)N[C@H]2CCC(=O)NCCCC[C@@H](C(=O)N[C@H]3CCCCNC(=O)C[C@@H](C(=O)N[C@@H](Cc4ccccc4)C(=O)N[C@H](C(=O)N[C@H]4CCC(=O)NCCCC[C@@H](C(=O)N[C@H]5CCCCNC(=O)CC[C@@H](C(N)=O)NC(=O)[C@H]([C@@H](C)O)NC(=O)[C@H]([C@@H](C)CC)NC(=O)[C@H](CCCCN)NC5=O)NC(=O)[C@H]([C@@H](C)CC)NC(=O)[C@H](CC(C)C)NC(=O)[C@H](Cc5c[nH]c6ccccc56)NC4=O)[C@@H](C)CC)NC(=O)[C@H](CCCCN)NC(=O)[C@H](C)NC(=O)[C@H](C)NC3=O)NC(=O)[C@H](CC(=O)O)NC(=O)[C@H](CC(C)C)NC(=O)[C@H]([C@@H](C)CC)NC2=O)NC1=O` [Example 77] (H-H[Aib]DGSFEDE[Nle]KEILDKKAAKDFIEWLIKKKITE-NH2; lactam 7-11, 12-16, 17-21, 24-28, 29-33; N-terminus and C-terminus assumed), the Emax at human GLP2 receptor turned out to be 102%; at human GLP1 receptor, 97.1%; on mouse GLP2 receptor (setting [1]) it was 102%. Besides, the EC50 at human GLP2 receptor is 0.0631 nM; on human GLP1 receptor, 0.501 nM; at mouse GLP2 receptor (setting [2]) it was 3.16 nM.

On to `CCCC[C@H](NC(=O)[C@H](CCC(=O)O)NC(=O)[C@@H]1CCCCNC(=O)CC[C@H](NC(=O)[C@H](Cc2nn[nH]n2)NC(=O)C(C)(C)C(=O)NCCc2c[nH]cn2)C(=O)N[C@@H](CO)C(=O)N[C@@H](Cc2ccccc2)C(=O)N[C@@H](CO)C(=O)N1)C(=O)N[C@H](Cc1ccccc1)C(=O)N[C@H]1CCC(=O)NCCCC[C@@H](C(=O)N[C@H]2CCC(=O)NCCCC[C@@H](C(=O)N[C@@H](CC(=O)O)C(=O)N[C@@H](Cc3ccccc3)C(=O)N[C@H](C(=O)N[C@H]3CCC(=O)NCCCC[C@@H](C(=O)N[C@H]4CCCCNC(=O)CC[C@@H](C(N)=O)NC(=O)[C@H]([C@@H](C)O)NC(=O)[C@H]([C@@H](C)CC)NC(=O)[C@H](CCCCN)NC4=O)NC(=O)[C@H]([C@@H](C)CC)NC(=O)[C@H](CC(C)C)NC(=O)[C@H](Cc4c[nH]c5ccccc45)NC3=O)[C@@H](C)CC)NC(=O)[C@H](C)NC(=O)[C@H](C)NC2=O)NC(=O)[C@H](CC(=O)O)NC(=O)[C@H](CC(C)C)NC(=O)[C@H]([C@@H](C)CC)NC1=O` [Example 78], for which the values for the Emax on human GLP2 receptor, at human GLP1 receptor and at mouse GLP2 receptor (setting [1]) were 103%, 95.5% and 83.1%, respectively. The values for the EC50 on human GLP2 receptor, on human GLP1 receptor and on mouse GLP2 receptor (setting [2]) were 0.0251 nM, 0.251 nM and 2 nM, respectively.

Take `CCCC[C@H](NC(=O)[C@H](CCC(=O)O)NC(=O)[C@@H]1CCCCNC(=O)CC[C@H](NC(=O)[C@H](Cc2nn[nH]n2)NC(=O)C(C)(C)C(=O)NCCc2c[nH]cn2)C(=O)N[C@@H](CO)C(=O)N[C@@H](Cc2ccccc2)C(=O)N[C@@H](CO)C(=O)N1)C(=O)N[C@H](Cc1ccccc1)C(=O)N[C@H]1CCC(=O)NCCCC[C@@H](C(=O)N[C@H]2CCCCNC(=O)C[C@@H](C(=O)N[C@@H](Cc3ccccc3)C(=O)N[C@H](C(=O)N[C@H]3CCC(=O)NCCCC[C@@H](C(=O)N[C@H]4CCCCNC(=O)CC[C@@H](C(N)=O)NC(=O)[C@H]([C@@H](C)O)NC(=O)[C@H]([C@@H](C)CC)NC(=O)[C@H](CCCCN)NC4=O)NC(=O)[C@H]([C@@H](C)CC)NC(=O)[C@H](CC(C)C)NC(=O)[C@H](Cc4c[nH]c5ccccc45)NC3=O)[C@@H](C)CC)NC(=O)[C@H](CCCCN)NC(=O)[C@H](C)NC(=O)[C@H](C)NC2=O)NC(=O)[C@H](CC(=O)O)NC(=O)[C@H](CC(C)C)NC(=O)[C@H]([C@@H](C)CC)NC1=O` [Example 79] ({Malonyl(2,2-Me2,histaminyl)}-[Ala(1H-tetrazol-5-yl)]ESFSKE[Nle][dF]EILDKKAAKDFIEWLIKKKITE-NH2; lactam 2-6, 10-14, 15-19, 22-26, 27-31 (inferred); C-terminus assumed): the Emax came out at 103% on human GLP2 receptor, 97.3% on human GLP1 receptor and 74.2% on mouse GLP2 receptor (setting [1]). Moreover, the values for the EC50 on human GLP2 receptor, at human GLP1 receptor and at mouse GLP2 receptor (setting [2]) were 0.0316 nM, 0.251 nM and 3.16 nM, respectively.

Turning to `CCCC[C@H](NC(=O)[C@H](CCC(=O)O)NC(=O)[C@H](CC(=O)O)NC(=O)[C@H](CO)NC(=O)[C@H](Cc1ccccc1)NC(=O)[C@H](CO)NC(=O)CNC(=O)[C@H](CC(=O)O)NC(=O)C(C)(C)NC(=O)[C@@H](N)Cc1c[nH]cn1)C(=O)N[C@H](Cc1ccccc1)C(=O)N[C@H](C(=O)N[C@H](C(=O)N[C@@H](CC(C)C)C(=O)N[C@@H](CC(=O)O)C(=O)N[C@H]1CCCCNC(=O)CC[C@@H](C(=O)N[C@@H](CC(=O)O)C(=O)N[C@@H](Cc2ccccc2)C(=O)N[C@H](C(=O)N[C@@H](CC(N)=O)C(=O)N[C@@H](Cc2c[nH]c3ccccc23)C(=O)N[C@@H](CC(C)C)C(=O)N[C@H](C(=O)N[C@@H](CCC(N)=O)C(=O)N[C@H](C(=O)N[C@@H](CCCCN)C(=O)N[C@H](C(=O)N[C@H](C(=O)N[C@@H](CC(=O)O)C(N)=O)[C@@H](C)O)[C@@H](C)CC)[C@@H](C)O)[C@@H](C)CC)[C@@H](C)CC)NC(=O)[C@H](C)NC(=O)[C@H](C)NC(=O)[C@H](CCCCN)NC1=O)[C@@H](C)CC)[C@@H](C)O` [Example 102] (H-H[Aib]DGSFSDE[Nle][dF]TILDKKAAEDFINWLIQTKITD-NH2; lactam 16-20; N-terminus and C-terminus assumed), the Emax at human GLP2 receptor was 101%; at human GLP1 receptor it was 99.3%; on mouse GLP2 receptor (setting [1]), 99%. The EC50 at human GLP2 receptor was 0.00126 nM; on human GLP1 receptor, 20 nM; on mouse GLP2 receptor (setting [2]), 0.02 nM.

For the origin of these results see patent publication US20240270809A1, “ORAL GLP RECEPTOR AGONISTS” (priority 2020, published 2024).
